The source of these data is US20230097866A1, “BACTERIAL TOPOISOMERASE INHIBITORS DERIVED FROM ISOMANNIDE” (Ohio State Innovation Foundation, priority 2020, published 2023).

Molecules are shown by their SMILES. ≈ marks a conversion by molar mass, not a printed value.

In experiment [1] the test system is H37Rv (rpoB^S450L). It is filed as cell-based, Mycobacterium tuberculosis.
The test system of experiment [2] is H37Rv (gyrA^D94K). It is filed as cell-based, Mycobacterium tuberculosis.
Experiment [3] relates to H37Rv (katG^del). As to the kind of experiment: microbe, parasite or virus in culture. It is filed as cell-based. Particulars: Mycobacterium tuberculosis, microbroth dilution.

As for `COc1ccc2ncc(F)c(CC[C@@]3(O)CO[C@@H]4[C@@H](NCc5ccc(C)cc5)CO[C@@H]43)c2n1` [Compound 25, (3R,3aS,6S,6aR)-3-(2-(3-fluora-6-methoxy-1,5-naphthyridin-4-yl)ethyl)-6-((4-methyllbenzyl)amino)hexahydrofuro[3,2-b]furan-3-ol], the “MIC H37Rv (rpoB^S450L)” value in experiment [1] was 4 µg/mL (≈ 8.82 µM). Besides, in experiment [2], the “MIC H37Rv (gyrA^D94K)” value worked out at 16 µg/mL (≈ 35.3 µM). The compound further returned an MIC in experiment [3] of 4 µg/mL (≈ 8.82 µM).
`COc1ccc2ncc(F)c(CC[C@@]3(O)CO[C@@H]4[C@@H](NCc5ccc(Cl)c(Cl)c5)CO[C@@H]43)c2n1` [Compound 26, (3R,3aS,6S,6aR)-6-((3,4-dichlorobenzyl)amino)-3-(2-(3-fluoro-6-methoxy-1,5-napkthyridin-4-yl)ethyl)hexahydrofuro[3,2-b]-furan-3-ol]: the “MIC H37Rv (rpoB^S450L)” value in experiment [1] was determined as 1 µg/mL (≈ 1.97 µM). Besides, the “MIC H37Rv (gyrA^D94K)” value in experiment [2] came out at 2 µg/mL (≈ 3.93 µM). The same compound returned an MIC in experiment [3] of 1 µg/mL (≈ 1.97 µM).
